From US9139551B2, “Preparation of a new class of water-soluble ammonium 2,3-dihydroxy-5-((2R,3R)-3,5,7-trihydroxy-4-oxochroman-2-yl) phenolates and their biological activity of alcohol elimination” (priority 2014, dated 2015)
In brackets after ≈: the same amount, converted by molar mass. Several values for one entry are separate records, joined by “and”; a condition that tells them apart may be missing. Equal values may be shown once. Marks after values point to notes of the source that are not given here.

Experiments:
physchem = details: water
Balb/C mice [1] = test: Anti-alcoholism test (agent 30 min after alcohol); assay type: in vivo
Excerpt: Anti-Alcoholism Tests • Groups design and treatment before experiment are as the same as that in Deintoxication test. […]

mice [2] = test: Acute toxicity, intragastric administration (maximum tolerated dose); details: for average body weight of mice / dietary change-by-day of mice: PDHM MTD 3750 mg/kg i.g.
[3] = as above; details: both, mouse, in vivo, po, 1250 mg/kg
Balb/C mice [4] = test: Plasma EtOH concentration assay; assay type: in vivo; details: intragastric 2 mg/kg
Method: Plasma EtOH Concentration Assay. • Blood samples from the tail vein of mice at different time points (0, 15, 30, 45, 60, 90, 120, 240, 480 and 720 minutes) after EtOH (30% ethanol, 0.2 ml/kg bw) or TDHM (2 mg/kg bw), PDHM (2 mg/kg bw) or DHM (2 mg/kg bw) gavage were collected for plasma EtOH concentrations (plasma [EtOH]) assays. (“BW” or “bw”: body weight) • Briefly, the Balb/C mice were put into a restraint tube and the tail was warmed at 37° C. The tail vein at the tip of the tail was punched with a sharp blade. Approximately 0.2 ml venous blood was dropped to a capillary blood collection tube containing lithium heparin (Ram Scientific). Blood samples were centrifuged at 2500 rpm for 20 min. The supernatant was collected and stored at −80° C. until assay. The EtOH content of each blood sample was measured in duplicate along with EtOH standards using the alcohol oxidase reaction procedures (EnzyChrom™ Ethanol Acid Assay Kit, ECET-100) (Liang et al., 2007). The sample preparations were the same as described above.

Balb/C mice [5] = test: Deintoxication test (agent 30 min before alcohol)
mice [6] = test: Acute toxicity, intraperitoneal administration (mortality, LD50, body weight, dietary); assay type: in vivo; details: for Dead number: 20 mice; for Dead number / mortality: 7 days
Method: Acute Toxicity • Compounds PDHM/TDHM.
140 mice were divided into 7 groups (n=20), each group include 10 males and 10 females, they were treated with different concentrations of dosages and observed for 7 days. Specific experimental groups and experimental results were noted below. Note: Section 1-6 group compound are PDHM groups, and group 7 is a negative control group.
140 mice were divided into 7 groups (n=20), each group include 10 males and 10 females, they were treated with different concentrations of dosage and observed for 7 days. Note: Section 1-6 group compound are PDHM groups, and group 7 is a negative control group.

Balb/C mice [7] = test: Climbing net test; assay type: in vivo; details: 2 mg/kg gavage 30 min before alcohol; vertical metal net
Method: Climbing Net Test • Groups design and treatment before experiment are as the same as that in deintoxication test. […] 30 minutes later all mice administrated alcohol (liquid Erguotou, ethonol concentration was diluted to 30%) 0.2 mL/kg BW and placed on a vertical metal net and measured the time when mice climbed on net.

[8] = 2 mg/kg gavage 30 min after 30% ethanol
[9] = 2 mg/kg gavage 30 min after 30% ethanol, 20 mice
[10] = 2 mg/kg gavage 30 min before 30% ethanol
[11] = agents intragastric 30 minutes before drinking

Structure (SMILES): O=C1c2c(O)cc(O)cc2O[C@H](c2cc(O)c(O)c(O)c2)[C@H]1O [PDHM, piperidinium 2,3-dihydroxy-5-((2R,3R)-3,5,7-trihydroxy-4-oxochroman-2-yl)phenolate]
- solubility (physchem): 5000 µg/mL (≈ 15.6 mM)
- Sleep time M ± SD (Balb/C mice [1]; [8]): 107.71 ± 36.87*^& min
- Tolerance time M ± SD (Balb/C mice [1]; [8]): 22.14 ± 15 min
- Dead number (Balb/C mice [1]; [9]): 2 piece
- Rate of drunk (Balb/C mice [1]; [9]): 10%
- sleep time in drunk mice comparing with DHM (Balb/C mice [1]; 2 mg/kg gavage 30 min after alcohol): remarkably shorten
- average body weight of mice (mice [2]; D1): 1.97 g
- dietary change-by-day of mice (mice [2]; D1): 5.98 g
- average body weight of mice (mice [2]; D2): 3.47 g
- dietary change-by-day of mice (mice [2]; D2): 6.1 g
- average body weight of mice (mice [2]; D3): 4.77 g
- dietary change-by-day of mice (mice [2]; D3): 6.03 g
- average body weight of mice (mice [2]; D4): 6.37 g
- dietary change-by-day of mice (mice [2]; D4): 6.14 g
- average body weight of mice (mice [2]; D5): 7.38 g
- dietary change-by-day of mice (mice [2]; D5): 6.48 g
- average body weight of mice (mice [2]; D6): 8.41 g
- dietary change-by-day of mice (mice [2]; D6): 6.32 g
- average body weight of mice (mice [2]; D7): 9.67 g
- dietary change-by-day of mice (mice [2]; D7): 6.57 g
- pathological examination of stomach, liver, kidney (mice [2]; mice at MTD, end of 7-day observation): no obvious degeneration, necrosis and other changes
- pathology changes in livers, kidneys, hearts and lungs (mice [2]; mice of the toxicity experiments): No degeneration and necrosis pathology changes
- deaths in preliminary experiments (mice [2]; mice, different doses, gavage once, observed 7 days): no deaths occurred
- deaths during the observation period at MTD (mice [2]; mice, gavage three times a day, 7 days): No deaths
- MTD at 7 days [3]: 3750 mg/kg
- blood alcohol concentration vs control group treated with saline (Balb/C mice [4]): significantly decreased
- reduction of blood alcohol concentration compared with DHM (Balb/C mice [4]): better beneficial effect than DHM
- Sleep time M ± SD (Balb/C mice [5]; [10]): 125.33 ± 33.75 min
- Tolerance time M ± SD (Balb/C mice [5]; [10]): 25.43 ± 10.80 min
- Dead number (Balb/C mice [5]; 2 mg/kg gavage 30 min before 30% ethanol, 20 mice): 2 piece
- holding time comparing with DHM (Balb/C mice [5]; [11]): shorten
- tolerance time of righting reflex disappearing comparing with DHM (Balb/C mice [5]; [11]): obviously prolonged
- Dead number (mice [6]; PDHM 853.27 mg/kg i.p.): 0
- mortality (mice [6]; PDHM 853.27 mg/kg i.p.): 0%
- average dietary of mice (mice [6]; PDHM 853.27 mg/kg i.p., D1): 3.79 g
- average dietary of mice (mice [6]; PDHM 853.27 mg/kg i.p., D2): 4.58 g
- average dietary of mice (mice [6]; PDHM 853.27 mg/kg i.p., D3): 3.6 g
- average dietary of mice (mice [6]; PDHM 853.27 mg/kg i.p., D4): 4.92 g
- average dietary of mice (mice [6]; PDHM 853.27 mg/kg i.p., D5): 5.76 g
- average dietary of mice (mice [6]; PDHM 853.27 mg/kg i.p., D6): 5.31 g
- average dietary of mice (mice [6]; PDHM 853.27 mg/kg i.p., D7): 5.83 g
- Dead number (mice [6]; PDHM 874.6 mg/kg i.p.): 6
- mortality (mice [6]; PDHM 874.6 mg/kg i.p.): 30%
- average dietary of mice (mice [6]; PDHM 874.6 mg/kg i.p., D1): 3.91 g
- average dietary of mice (mice [6]; PDHM 874.6 mg/kg i.p., D2): 4.73 g
- average dietary of mice (mice [6]; PDHM 874.6 mg/kg i.p., D3): 5.81 g
- average dietary of mice (mice [6]; PDHM 874.6 mg/kg i.p., D4): 5.43 g
- average dietary of mice (mice [6]; PDHM 874.6 mg/kg i.p., D5): 4.97 g
- average dietary of mice (mice [6]; PDHM 874.6 mg/kg i.p., D6): 5.88 g
- average dietary of mice (mice [6]; PDHM 874.6 mg/kg i.p., D7): 5.72 g
- Dead number (mice [6]; PDHM 896.47 mg/kg i.p.): 10
- mortality (mice [6]; PDHM 896.47 mg/kg i.p.): 50%
- average dietary of mice (mice [6]; PDHM 896.47 mg/kg i.p., D1): 3.35 g
- average dietary of mice (mice [6]; PDHM 896.47 mg/kg i.p., D2): 4.92 g
- average dietary of mice (mice [6]; PDHM 896.47 mg/kg i.p., D3): 5.78 g
- average dietary of mice (mice [6]; PDHM 896.47 mg/kg i.p., D4): 6.04 g
- average dietary of mice (mice [6]; PDHM 896.47 mg/kg i.p., D5): 5.72 g
- average dietary of mice (mice [6]; PDHM 896.47 mg/kg i.p., D6): 5.34 g
- average dietary of mice (mice [6]; PDHM 896.47 mg/kg i.p., D7): 5.65 g
- Dead number (mice [6]; PDHM 918.88 mg/kg i.p.): 12
- mortality (mice [6]; PDHM 918.88 mg/kg i.p.): 60%
- average dietary of mice (mice [6]; PDHM 918.88 mg/kg i.p., D1): 4.21 g
- average dietary of mice (mice [6]; PDHM 918.88 mg/kg i.p., D2): 4.79 g
- average dietary of mice (mice [6]; PDHM 918.88 mg/kg i.p., D3): 5.21 g
- average dietary of mice (mice [6]; PDHM 918.88 mg/kg i.p., D4): 6.08 g
- average dietary of mice (mice [6]; PDHM 918.88 mg/kg i.p., D5): 5.83 g
- average dietary of mice (mice [6]; PDHM 918.88 mg/kg i.p., D6): 6.24 g
- average dietary of mice (mice [6]; PDHM 918.88 mg/kg i.p., D7): 5.13 g
- Dead number (mice [6]; PDHM 941.85 mg/kg i.p.): 18
- mortality (mice [6]; PDHM 941.85 mg/kg i.p.): 90%
- average dietary of mice (mice [6]; PDHM 941.85 mg/kg i.p., D1): 4.76 g
- average dietary of mice (mice [6]; PDHM 941.85 mg/kg i.p., D2): 3.92 g
- average dietary of mice (mice [6]; PDHM 941.85 mg/kg i.p., D3): 4.66 g
- average dietary of mice (mice [6]; PDHM 941.85 mg/kg i.p., D4): 5.82 g
- average dietary of mice (mice [6]; PDHM 941.85 mg/kg i.p., D5): 6.15 g
- average dietary of mice (mice [6]; PDHM 941.85 mg/kg i.p., D6): 5.79 g
- average dietary of mice (mice [6]; PDHM 941.85 mg/kg i.p., D7): 5.43 g
- Dead number (mice [6]; PDHM 965.4 mg/kg i.p.): 20
- mortality (mice [6]; PDHM 965.4 mg/kg i.p.): 100%
- average dietary of mice (mice [6]; PDHM 965.4 mg/kg i.p., D1): 0 g
- average dietary of mice (mice [6]; PDHM 965.4 mg/kg i.p., D2): 0 g
- average dietary of mice (mice [6]; PDHM 965.4 mg/kg i.p., D3): 0 g
- average dietary of mice (mice [6]; PDHM 965.4 mg/kg i.p., D4): 0 g
- average dietary of mice (mice [6]; PDHM 965.4 mg/kg i.p., D5): 0 g
- average dietary of mice (mice [6]; PDHM 965.4 mg/kg i.p., D6): 0 g
- average dietary of mice (mice [6]; PDHM 965.4 mg/kg i.p., D7): 0 g
- effect on dietary and body weight (mice [6]; mice): no significant effect
- LD50 (mice [6]; mice, i.p., observed 7 days): 888.79 to 914.58 mg/kg and 748.69 mg/kg
- climbing (Balb/C mice [7]): 392.25 ± 76.67^#& min
